In general, Ki refers to the dissociation constant of the complex between target and ligand, obtained from inhibition or displacement. High values mean a looser hold on the target, low ones a stronger hold on the target.

Assay [1] has as its target T1, human 5-HT5A receptor (Homo sapiens, UniProt P47898).
T1 construct: expressed in transfected cells; membrane preparation
Nature of the assay: Test of human 5-HT5A receptor binding inhibition ([3H]5-CT, HEK293 cell membrane). To be noted: [3H]5-CT binding, membrane of HEK293 cell expressing human 5-HT5A receptor. As to the method: An ORF of a human 5-HT5A receptor (Genbank AF498985) was cloned from a human hippocampal cDNA library, and then inserted into a pCR2.1 vector (Invitrogen), and Escherichia coli having the plasmid was mass cultured. Next, the human 5-HT5A receptor full-length cDNA sequence was analyzed, recombined into a pCDNA3.1 vector (Invitrogen) as an expression vector, and mass cultured. A human embryonic kidney-induced cell HEK293 cell (ATCC) was seeded, and the resulting expression plasmid (1 μg) above was added thereto together with LIPOFECTAMINE 2000 (Invitrogen; 2 μl), a gene was introduced into the HEK293 cell, and then Geneticin (G418 sulfate 500 μg/ml; Kanto Chemical Co., Inc.) was used as a drug-resistant marker to screen the expressing cell. Thus prepared gene-expressing recombinant cell was cultured in a D-MEM, 10% FCS, 1% Pc./Sm., 500 μg/ml G418 culture medium for 3 days. This experimental operation was conducted in accordance with a gene operation experiment manual of a known method (Sambrook, J. et al, Molecular Cloning-A Laboratory Manual“, Cold Spring Harabor Laboratory, NY, 1989), etc., an instruction appended in a reagent or the like.
(1) Preparation of a Membrane from an HEK293 Cell Forcibly Expressing a Human 5-HT5A Receptor
An HEK293 cell forcibly expressing a human 5-HT5A receptor was cultured in an F500 plate, and scraped for collection using a scraper. After centrifugation, the precipitates were collected and an incubation buffer (50 mM Tris (HCl) PH 7.4, 10 mM Mg504, 0.5 mM EDTA) was added thereto. After homogenization, it was further centrifuged, an incubation buffer was added to the precipitate, and the mixture was well suspended. These operations were repeatedly conducted, the protein concentration was then measured, and the preparation of a membrane was completed.
(2) Experiment on Human 5-HT5A Receptor Binding Inhibition
The compound to be tested (0.3 to 300 nM) and a 100 μM 5-CT solution in DMSO were added to a 96-well plate at 2 μl/well. The number of the wells to be measured under the same condition in one experiment was set at 2, and an average value thereof was used. It was suspended in an incubation buffer, and a HEK293 cell membrane forcibly expressing a human 5-HT5A receptor that had been prepared at 200 μg/ml was added thereto at 100 μl/well. The mixture was incubated at room temperature for 15 minutes, and a [^3H]5-CT solution (2 nM [^3H]5-CT, an incubation buffer) was then added thereto at 100 μl/well.
Separate from this, 100 μl of the solution was dispersed to a liquid scintillation vial, 2 ml of Aquasol II (registered trademark) was added thereto, followed by stirring, and the radioactivity was then measured with a liquid scintillation counter. The solution was incubated at 37° C. for 60 minutes. The reaction liquid was sucked to a 96-well GF/C filter plate that had been preliminarily treated with 0.2% polyethyleneimine, and washed six times with an ice-cooled 50 mM Tris (pH 7.5) buffer. The GF/C filter plate was dried.
MicroscintTMPS (registered trademark) was added thereto at 40 μl/well. The radioactivity remaining on the GF/C filter plate was measured in a top counter.
For the inhibitory activity for the binding of the [^3H]5-CT by the compound to be tested in each experiment, IC50 value was calculated by taking the radioactivity when only DMSO was added as 0% inhibition, and the radioactivity when 1 μM 5-CT was added as 100% inhibition. Apart from this, a Ki value was calculated from the Kd value of the [^3H]5-CT that had been determined by Scatchard analysis.
Ki=IC50 (1+Concentration of the ligands added/Kd (4.95 nM))

In assay [2] the test system is PCP-induced prepulse inhibition (PPI) disorder. Description: Disorder of PCP-induced prepulse inhibition (PPI) in a rat. The class given is in vivo. The note with it: oral, PCP 1 mg/kg s.c., % PPI. As to the method: An Improvement Effect for a Disorder of PCP-Induced Prepulse Inhibition (PPI) in a Rat
A startle amplitude occurs in humans to which an sound stimulus has been given, but in healthy human, this startle amplitude is inhibited by the giving of a weak sound stimulus that precedes the sound stimulus. For a patient with schizophrenia, the inhibitory function similarly declined. It is known that when a rat is administered with PCP (phencyclidine), there is a symptom similar to the negative symptom of schizophrenia in humans. Using this model, the improvement effect of the compound (I) for the information processing disorder included in cognitive impairment of schizophrenia was evaluated.
Species: Male Wistar rat/number of the animals (number of animals per group): 12 animals per group
Startle amplitude measuring device for small animals: an SR-LAB ABS system (manufactured by San Diego Instruments)
An animal holder, to which a Plexiglas-made cylinder for animal storage having a diameter of 8.2 cm was attached, was positioned in the upper part of a Plexiglas-made frame in a measurement box. In the measurement box, a sound-insulating treatment and ventilation (FAN) were carried out. Sound was administered by a speaker attached to the 24 cm upper part of the cylinder. The movement of the animals in the cylinder was detected by a transducer attached in the lower part of the frame and recorded by a microcomputer via an interface.
The experiment was initiated after the animals were put into the chamber for measurement and had spent 10 minutes adapting to the measurement environment. Basically, at 35 minutes after the compound to be tested was orally administered, 1 mg/kg of PCP was subcutaneously administered (1 ml/kg). Five minutes later, the rats were put into a chamber for measurement, allowed to adapt for 10 minutes, and the measurement was then initiated. A white noise of 65 dB (for all frequencies, a disordered noise having a constant energy per unit band) used as a background noise was always played through the break periods and the sessions. The three types of trials as shown below were carried out in a random order 10 times for each type with 30 times in total. Each trial was carried out at a pseudo-random interval of 20 to 60 seconds with an average of 40 seconds. A pulse was defined as a white noise of 120 dB, 20 msec, and a prepulse was defined as a white noise of 70, 80 dB, 20 msec.
The startle amplitude of the animal was measured for 100 msec from the initiation of the pulse, and the maximum value was taken as a “maximum startle amplitude (Vmax))”. The “maximum startle amplitude” for the ten times for each of the three types of trials were averaged, and taken as a “startle amplitude (simply referred to as SA)” under the stimulation condition.
The % prepulse inhibition (% PPI) was calculated in the following equation in the PP80 & P trial of 3) above.
% Prepulse inhibition (% PPI)=(Startle amplitude at P-alone trial (SA)−Startle amplitude (SA) at a PP80 & P trial)/Startle amplitude at P alone trial×100
The measured value was expressed as an average value (mean±SE). First, the startle amplitudes (SA) were statistically analyzed. […] For the measured data of % PPI, the normal group and the control group (the group administered with PCP) were compared by a Student t-test, and for the control group and the group administered with the compound to be tested were compared using a Dunnett evaluation. […] The effect of the compound to be tested was assessed with % PPI.

Some results are limits rather than exact numbers.

T1 sequence (P47898 whole entry): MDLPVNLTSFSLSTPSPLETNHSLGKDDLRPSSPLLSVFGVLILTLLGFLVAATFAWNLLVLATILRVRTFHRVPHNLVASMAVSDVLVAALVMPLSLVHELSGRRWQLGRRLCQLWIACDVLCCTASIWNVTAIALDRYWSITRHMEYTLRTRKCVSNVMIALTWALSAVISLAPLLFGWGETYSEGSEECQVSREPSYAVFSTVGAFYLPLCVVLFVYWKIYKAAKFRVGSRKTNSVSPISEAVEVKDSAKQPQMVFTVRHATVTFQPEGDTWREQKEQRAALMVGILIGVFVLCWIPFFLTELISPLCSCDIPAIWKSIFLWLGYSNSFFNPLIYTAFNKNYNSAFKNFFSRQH

In assay [1], `NC(N)=NC(=O)c1ccc2c3ccccc3n(C3CCOCC3)c2c1` [Example 25] showed a Ki of 0.51 nM. Moreover, the “improvement of the disorder of PCP prepulse inhibition (PPI)” value in assay [2] (dose 0.03 mg/kg) and in assay [2] (dose 0.1 mg/kg) was “significantly improved” each time.

In assay [1], `CC(C)n1c2cc(C(=O)N=C(N)N)ccc2c2c(CO)cccc21` [Example 65] returned a Ki of at most 50 nM. In addition, the “improvement of the disorder of PCP prepulse inhibition (PPI)” value in assay [2] (dose 0.1 mg/kg) and in assay [2] (dose 0.3 mg/kg) was “significantly improved” throughout.

The values above are taken from patent US20100324017A1, “ACYLGUANIDINE DERIVATIVE” (priority 2007, published 2010).
